Measurements taken from ChEMBL document CHEMBL1671634, “Statins alone are ineffective in cerebral malaria but potentiate artesunate” (2008).
Calls of active or inactive are those of the source. No cut-off for these calls is given here.

Key:
Plasmodium falciparum [1] = test: Antimalarial activity against Plasmodium falciparum infected in mouse assessed as mouse survival at 20 mg/kg, ip, qd administered 4 days post infection for 3 days measured after 6 days relative to control; assay type: functional, organism-based; set-up: dose 20 mg/kg
Plasmodium falciparum [2] = test: Antimalarial activity against Plasmodium falciparum infected in mouse assessed as parasitemia at 20 mg/kg, ip, qd administered 4 days post infection for 3 days measured after 6 days (Rvb =8.7+/-1.4 %); assay type: functional
Plasmodium falciparum [3] = test: Antimalarial activity against Plasmodium falciparum infected in mouse assessed as parasitemia at 100 mg/kg, ip, qd administered 5 days post infection for 3 days measured after 6 days (Rvb =8.3+/-1.3 %); assay type: functional
Plasmodium falciparum [4] = test: Antimalarial activity against Plasmodium falciparum infected in mouse assessed as mouse survival at 20 mg/kg, ip, qd administered 5 days post infection for 3 days measured after 6 days relative to control; assay type: functional, organism-based; set-up: dose 20 mg/kg
Plasmodium falciparum [5] = test: Antimalarial activity against Plasmodium falciparum infected in mouse assessed as parasitemia at 20 mg/kg, ip, qd administered 5 days post infection for 3 days measured after 6 days (Rvb =8.3+/-1.3 %); assay type: functional
Plasmodium falciparum [6] = test: Antimalarial activity against Plasmodium falciparum infected in mouse assessed as mouse survival at 100 mg/kg, ip, qd administered 5 days post infection for 3 days measured after 6 days relative to control; assay type: functional, organism-based; set-up: dose 100 mg/kg
Plasmodium falciparum [7] = test: Antimalarial activity against Plasmodium falciparum infected in mouse assessed as mouse survival at 40 mg/kg, ip, qd administered 5 days post infection for 3 days measured after 6 days relative to control; assay type: functional, organism-based; set-up: dose 40 mg/kg
Plasmodium falciparum [8] = test: Antimalarial activity against Plasmodium falciparum infected in mouse assessed as parasitemia at 200 mg/kg, ip, qd administered 5 days post infection for 3 days measured after 6 days (Rvb =9.9+/-2.2 %); assay type: functional
Plasmodium falciparum [9] = test: Antimalarial activity against Plasmodium falciparum infected in mouse assessed as mouse survival at 200 mg/kg, ip, qd administered 5 days post infection for 3 days measured after 6 days relative to control; assay type: functional, organism-based; set-up: dose 200 mg/kg
Plasmodium falciparum [10] = test: Antimalarial activity against Plasmodium falciparum infected in mouse assessed as parasitemia at 40 mg/kg, ip, qd administered 5 days post infection for 3 days measured after 6 days (Rvb =9.9+/-2.2 %); assay type: functional
Plasmodium falciparum [11] = test: Antimalarial activity against Plasmodium falciparum infected in mouse assessed as mouse survival at 40 mg/kg, ip, qd administered 3 days post infection for 6 days measured after 6 days relative to control; assay type: functional, organism-based; set-up: dose 40 mg/kg
Plasmodium falciparum [12] = test: Antimalarial activity against Plasmodium falciparum infected in mouse assessed as parasitemia at 40 mg/kg, ip, qd administered 3 days post infection for 6 days measured after 6 days (Rvb =8.0+/-1.6 %); assay type: functional

In the case of `CC(C)c1c(C(=O)Nc2ccccc2)c(-c2ccccc2)c(-c2ccc(F)cc2)n1CC[C@@H](O)C[C@@H](O)CC(=O)O` [ATORVASTATIN], the Survival (Plasmodium falciparum [1]) is reported as “inactive” and the Activity (Plasmodium falciparum [2]) is reported as 9.5%.

With `CC(C)n1c(/C=C/C(O)CC(O)CC(=O)O)c(-c2ccc(F)cc2)c2ccccc21` (configuration not stated) [FLUVASTATIN] the Activity (Plasmodium falciparum [3]) was 7.4%, the Survival (Plasmodium falciparum [4]) was “inactive” and the Activity (Plasmodium falciparum [5]) was 7.4%. For the same molecule, the Survival (Plasmodium falciparum [6]) was “inactive”.

`CC[C@H](C)C(=O)O[C@H]1C[C@H](O)C=C2C=C[C@H](C)[C@H](CC[C@@H](O)C[C@@H](O)CC(=O)O)[C@H]21` [PRAVASTATIN] was tested, and the Survival (Plasmodium falciparum [7]) was “inactive”, the Activity (Plasmodium falciparum [8]) was 11.8% and the Survival (Plasmodium falciparum [9]) was “inactive”. It also gave an Activity (Plasmodium falciparum [10]) of 11.5%.

For `CCC(C)(C)C(=O)O[C@H]1C[C@@H](C)C=C2C=C[C@H](C)[C@H](CC[C@@H]3C[C@@H](O)CC(=O)O3)[C@H]21` [SIMVASTATIN], the Survival (Plasmodium falciparum [11]) was “inactive” and the Activity (Plasmodium falciparum [12]) was 8.5%.
